We go through 18 molecules from PubChem BioAssay AID1918996 (Molecular Pharmacology Branch, DTP, NCI, 2023).

“And” between values parts separate entries of the source, which are not always exact repeats. Equal entries are not always repeated.

In general, viability, T/C refers to the ratio of treated to control. By IC50 is commonly meant the concentration at which inhibition is half-maximal.
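Further: spheroids exposed to agents for seven days before luminescence viability read.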
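Wherever viability, T/C is given: spheroids also contain HUVEC endothelial cells and human MSC stroma.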

The test system of one assay is 349418-098-R-PDC complex spheroid growth. Put plainly: Anticancer human tumor 349418-098-R-PDC patient-derived lung adenocarcinoma cell line growth inhibition [AhR]. Conditions: compound 3.16 µM; stronger effect = lower value. From the text: Multicellular complex tumor spheroid response to aryl hydrocarbon receptor antagonists in combination with a variety of drugs and investigational agents in selected tumor cell lines
The current study was undertaken to assess response to aryl hydrocarbon receptor antagonists in combination with standard-of-care drugs and investigational agents in solid tumor complex spheroid models. Complex spheroids include a stromal component modeled by human endothelial cells (HUVEC) and fibroblasts modeled by human mesenchymal stem cells (MSCs). The concentration ranges selected for each drug and investigational agent were based upon clinically achievable concentrations if the clinical Cmax of the agent was known.
Compounds. The drugs and investigational agents: BAY 2416964 (NSC825713), GNF351 (NSC835774), CH-223191 (NSC835775), CPI-455 (NSC825282), aza-TdCyd (NSC777586), decitabine (NSC127716), belinostat (NSC758774), entinostat (NSC756642), pevonedistat (NSC761192), tazemetostat (NSC777109), talazoparib (NSC765396), olaparib (NSC753686), selinexor (NSC780203), nedisertib (M3814, NSC802822), bortezomib (NSC756655), venetoclax (NSC766270), doxorubicin (NSC123127), elimusertib (BAY189344, NSC800525), ceralasertib (AZD6738, NSC777638), TAK-243 (NSC785004), alisertib (NSC759677), etoposide (NSC141540), topotecan (NSC609699), eribulin (NSC707389), gemcitabine (NSC613327), carboplatin (NSC241240), cisplatin (NSC119875), and SN-38 (NSC673596) were obtained from the National Cancer Institute (NCI) Developmental Therapeutics Program Chemical Repository (32). The FDA-approved anticancer drug set is available from the Developmental Therapeutics Program at https://dtp.cancer.gov/organization/dscb/obtaining/available plates.htm. […] The stock solutions were prepared in dimethyl sulfoxide (DMSO, Sigma-Aldrich, St. Louis, MO, cat. D2650), except for the platinum compounds which were prepared in saline (Quality Biological, Gaithersburg, MD, cat. 114-055-101), at 800-fold the tested concentration and stored at -70 degrees C prior to their use. All drugs and investigational agents were tested over a range starting from a high concentration at or near the clinical Cmax and decreasing in half-log increments. If the clinical Cmax for an agent had not been determined, the highest concentration tested was 10 microM (Table 1).
Cell Culture. All cells were maintained in an incubator at 37 degrees C and 5% CO2 with 95% humidity. The PDC lines were cultured according to standard operating procedures established by the NCI PDMR (https://pdmr.cancer.gov). Briefly, all PDCs were thawed and cultured in Matrigel-coated flasks prepared with a working solution of 1X Ham's F-12 nutrient mix, without supplementation (Invitrogen, Waltham, MA, cat. 11765054), 100 U/mL penicillin-streptomycin (Invitrogen, cat. 15140122), and 2.5% Matrigel (Corning Inc., Corning, NY, cat. 354248) for the first three passages. All PDCs were cultured in complete DMEM/F-12 media containing advanced DMEM/F-12 (Invitrogen, cat. 12634028), 4.9% defined fetal bovine serum, heat inactivated (HyClone Laboratories Inc., Logan, UT, cat. SH30070.03HI), 389 ng/mL hydrocortisone (Sigma-Aldrich, cat. H4001), 9.7 ng/mL human EGF recombinant protein (Invitrogen, cat. PHG0313), 23.4 microg/mL adenine (Sigma-Aldrich, cat. A2786), 97.3 U/mL penicillin-streptomycin (Invitrogen, cat. 15140122), 1.9 mM L-glutamine (Invitrogen, cat. 25030081), and 9.7 microM Y-27632 dihydrochloride (Tocris Bioscience, Bristol, United Kingdom, cat. 1254). The PDCs were cultured in complete DMEM/F12 media without 10 microM Y-27632 dihydrochloride for at least two passages prior to the screen. The established cell lines NCI-H1341 and […] were cultured in DMEM/F-12, HEPES (Invitrogen, cat. 11330032), 5% defined fetal bovine serum (HyClone Laboratories Inc., cat. SH30070.03), ITS premix universal culture supplement [insulin (5 microg/mL), transferrin (5 microg/mL), and selenious acid (5 ng/mL)] […]
Take `NS(=O)(=O)OCC1CC(n2ccc3c(NC4CCc5ccccc54)ncnc32)CC1O` (configuration not stated): the viability, T/C was 15.2% and 12.5% and 14%. The same measure, in the same setting: for `Nc1ccccc1NC(=O)c1ccc(CNC(=O)OCc2cccnc2)cc1` the value was 23.7% and 17.8% and 23.1%; for `Nc1ccn(C2OC(CO)C(O)C2(F)F)c(=O)n1` (configuration not stated), 4.07% and 9.38% and 10.2%; for `O=C(C=Cc1cccc(S(=O)(=O)Nc2ccccc2)c1)NO`, 13.1% and 11.2% and 10.6%.

As for `O=C(c1cc(Cc2n[nH]c(=O)c3ccccc23)ccc1F)N1CCN(C(=O)C2CC2)CC1`, the viability, T/C is 92.4% and 52.9% and 67.8%.

The assay is the same for the next values; noted with them: compound 10 µM; stronger effect = lower value.
In the case of `CC1(C)CCC(CN2CCN(c3ccc(C(=O)NS(=O)(=O)c4ccc(NCC5CCOCC5)c([N+](=O)[O-])c4)c(Oc4cnc5[nH]ccc5c4)c3)CC2)=C(c2ccc(Cl)cc2)C1`, the viability, T/C is 96.6% and 33.3% and 37.7%.

Turning to `COc1cc(C2c3cc4c(cc3C(OC3OC5COC(C)OC5C(O)C3O)C3COC(=O)C23)OCO4)cc(OC)c1O` (configuration not stated), the viability, T/C is 5.4% and 11.7% and 12.5%. Turning to `COc1cc(Nc2ncc3c(n2)-c2ccc(Cl)cc2C(c2c(F)cccc2OC)=NC3)ccc1C(=O)O`, the viability, T/C was 37.2% and 35.5% and 37.6%.

With `COc1cccc2c1C(=O)c1c(O)c3c(c(O)c1C2=O)CC(O)(C(=O)CO)CC3OC1CC(N)C(O)C(C)O1` (configuration not stated), the viability, T/C is 4.37% and 6.2% and 5.59%. With `NS(=O)(=O)OCC1CC(n2ccc3c(NC4CCc5ccccc54)ncnc32)CC1O` (configuration not stated), the viability, T/C is 6.38% and 8.08% and 8.54%.

Turning to `Nc1ccccc1NC(=O)c1ccc(CNC(=O)OCc2cccnc2)cc1`, the viability, T/C is 5.19% and 7.03% and 7.04%. Take `Nc1ccn(C2OC(CO)C(O)C2(F)F)c(=O)n1` (configuration not stated): the viability, T/C is 3.24% and 7.8% and 8.55%.

On to `O=C(C=Cc1cccc(S(=O)(=O)Nc2ccccc2)c1)NO`, for which the viability, T/C was 2.17% and 1.85% and 2.27%. Same read-out and setting: then `O=C(c1cc(Cc2n[nH]c(=O)c3ccccc23)ccc1F)N1CCN(C(=O)C2CC2)CC1`, with 64.2% and 30% and 36.2%.

The same assay, now with this note: curve of compound.
With `CC(C)CC(NC(=O)C(Cc1ccccc1)NC(=O)c1cnccn1)B(O)O` (configuration not stated), the IC50 is 0.00102 µM and < 0.000949 µM. As to `CC1(C)CCC(CN2CCN(c3ccc(C(=O)NS(=O)(=O)c4ccc(NCC5CCOCC5)c([N+](=O)[O-])c4)c(Oc4cnc5[nH]ccc5c4)c3)CC2)=C(c2ccc(Cl)cc2)C1`, the IC50 is > 10 µM and 7.5 µM and 6.06 µM.

For the molecule `CC1COCCN1c1cc(-c2ccnn2C)c2ccnc(-c3ccn[nH]3)c2n1` (configuration not stated), the 50% inhibitory concentration (IC50) is 0.142 µM and 0.0808 µM and 0.0844 µM. As to `CCN(c1cc(-c2ccc(CN3CCOCC3)cc2)cc(C(=O)NCc2c(C)cc(C)[nH]c2=O)c1C)C1CCOCC1`, the IC50 was > 3 µM.

On to `CC[C@@]1(O)C(=O)OCc2c1cc1n(c2=O)Cc2cc3c(CN(C)C)c(O)ccc3nc2-1`, for which the IC50 is 0.0262 µM and 0.0258 µM and 0.0129 µM. Regarding `CCc1c2c(nc3ccc(O)cc13)-c1cc3c(c(=O)n1C2)COC(=O)[C@]3(O)CC`, the 50% inhibitory concentration (IC50) was 0.00158 µM and 0.00339 µM and < 0.000949 µM. Still for that read-out and setting: for `COc1cc(C2c3cc4c(cc3C(OC3OC5COC(C)OC5C(O)C3O)C3COC(=O)C23)OCO4)cc(OC)c1O` (configuration not stated) the value was 0.479 µM and 0.566 µM and 0.244 µM; for `COc1cc(Nc2ncc3c(n2)-c2ccc(Cl)cc2C(c2c(F)cccc2OC)=NC3)ccc1C(=O)O`, 0.184 µM and 0.0526 µM and < 0.0316 µM.

As for `COc1cccc2c1C(=O)c1c(O)c3c(c(O)c1C2=O)CC(O)(C(=O)CO)CC3OC1CC(N)C(O)C(C)O1` (configuration not stated), the IC50 was < 0.0316 µM. Same read-out and setting: for `Cn1ncnc1C1c2n[nH]c(=O)c3cc(F)cc(c23)NC1c1ccc(F)cc1` (configuration not stated) the value was > 0.1 µM; for `NS(=O)(=O)OCC1CC(n2ccc3c(NC4CCc5ccccc54)ncnc32)CC1O` (configuration not stated), 0.572 µM and 0.231 µM and 0.199 µM; for `Nc1ccccc1NC(=O)c1ccc(CNC(=O)OCc2cccnc2)cc1`, 0.85 µM and 1.44 µM and 0.937 µM.

For the molecule `Nc1ccn(C2OC(CO)C(O)C2(F)F)c(=O)n1` (configuration not stated), the IC50 is < 0.0316 µM. In the case of `Nc1ncn(C2CC(O)C(CO)O2)c(=O)n1` (configuration not stated), the concentration for half-maximal inhibition (IC50) is 0.204 µM and 0.054 µM and 0.0325 µM.

In the case of `Nc1ncn(C2CC(O)C(CO)S2)c(=O)n1` (configuration not stated), the IC50 was 0.0941 µM and 0.121 µM and 0.111 µM. With `O=C(C=Cc1cccc(S(=O)(=O)Nc2ccccc2)c1)NO`, the IC50 was 0.72 µM and 0.731 µM and 0.657 µM. On to `O=C(C=Cn1cnc(-c2cc(C(F)(F)F)cc(C(F)(F)F)c2)n1)NNc1cnccn1`, for which the concentration for half-maximal inhibition (IC50) is 0.0496 µM and 0.0211 µM and 0.024 µM. The same measure, in the same setting: then `O=C(c1cc(Cc2n[nH]c(=O)c3ccccc23)ccc1F)N1CCN(C(=O)C2CC2)CC1`, with > 10 µM and 3.67 µM and 5.62 µM.
